Source: patent US11000033B2, “Ketone or oxime compound, and herbicide” (NISSAN CHEMICAL CORPORATION, priority 2014, dated 2021)

Tests used:
Format in all cases: in vivo
soybean = assay: Test Example 5: effect on crop by foliage application, plastic box (symbol d); details: 320 g/ha, 3 weeks after application
Summary of the method: (§1)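 Sterilized diluvial soil, plastic box (21 × 13 × 7 cm); spot sowing, ~1.5 cm soil cover; greenhouse 25–30° C.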

Veronica persica = assay: Test Example 5: herbicidal effect by foliage application, plastic box (symbol R); details: 320 g/ha, 3 weeks after application
Summary of the method: (§2)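 Herbicide, formulated as an emulsion and diluted in water, is sprayed onto the aerial parts of 14-day seedlings. These were grown at 25° C. to 30° C. in sterilized diluvial soil; effects are graded after 3 weeks.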

beet [1] = assay: Test Example 4: effect on crop by soil treatment (symbol f); details: application herbicide amount 320 g/ha
Summary of the method: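 Plants grew in a 25° C. to 30° C. greenhouse after spot-sowing of seeds, including beet, rapeseed, wheat and rice, into sterilized diluvial soil under roughly 1.5 cm of cover soil.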

beet [2] = assay: Test Example 5: effect on crop by foliage application, plastic box (symbol f); details: 320 g/ha, 3 weeks after application
Summary of the method: as §1

[3] = test system: Echinochloa crus-galli var. crus-galli; assay: Test Example 3: herbicidal effect by foliage application, Wagner pot (symbol H); details: application herbicide amount 320 g/ha
Summary of the method: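 Foliar spray of water-diluted emulsion formulation at a predetermined herbicide amount onto 14-day-old plants in flooded alluvial soil (water depth 0.1–0.5 cm), greenhouse 25–30 °C; rice sown alongside. Scored 3 wk post-application on set criteria.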

Abutilon theophrasti [4] = assay: Test Example 5: herbicidal effect by foliage application, plastic box (symbol M); details: 320 g/ha, 3 weeks after application
Summary of the method: as §2

Amaranthus retroflexus = assay: Test Example 5: herbicidal effect by foliage application, plastic box (symbol N); details: 320 g/ha, 3 weeks after application
Summary of the method: as §2

Abutilon theophrasti [5] = assay: Test Example 4: herbicidal effect by soil treatment (symbol M); details: application herbicide amount 320 g/ha
Summary of the method: (§3)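 Seeds were sown in sterilized diluvial soil, covered with about 1.5 cm of soil, and the soil surface was sprayed with a water-diluted emulsion of the compound at a predetermined rate. Plants grew in a greenhouse at 25° C. to 30° C.; effects were scored visually 3 weeks after application.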

Digitaria ciliaris [6] = assay: Test Example 5: herbicidal effect by foliage application, plastic box (symbol F); details: 320 g/ha, 3 weeks after application
Summary of the method: as §2

Digitaria ciliaris [7] = assay: Test Example 4: herbicidal effect by soil treatment (symbol F); details: application herbicide amount 320 g/ha
Summary of the method: as §3

rice plant = assay: Test Example 5: effect on crop by foliage application, plastic box (symbol b); details: 320 g/ha, 3 weeks after application
Summary of the method: as §1

Alopecurus myosuroides = assay: Test Example 4: herbicidal effect by soil treatment (symbol J); details: application herbicide amount 320 g/ha
Summary of the method: as §3

Avena fatua = assay: Test Example 4: herbicidal effect by soil treatment (symbol I); details: application herbicide amount 320 g/ha
Summary of the method: as §3

Apera spica-venti = assay: Test Example 5: herbicidal effect by foliage application, plastic box (symbol L); details: 320 g/ha, 3 weeks after application
Summary of the method: as §2

[8] = test system: Echinochloa oryzacola Vasing.; assay: Test Example 2: herbicidal activity, application during weed generation in submerged conditions (symbol A); details: Table 23; application herbicide amount 320 g/ha; grade 0-5 by criteria of Test Example 1
Summary of the method: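 Paddy pot test, submerged (4 cm water), alluvial soil, mixed sowing; greenhouse 25–30° C. Emulsion formulation diluted to predetermined rate, applied onto floodwater at 1–2 leaf stage. Visual herbicidal rating at 3 wk post-treatment.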

## CCON=C(C)CC1CC(O)=C(c2c(C)cc(C)cc2C)C1=O (centres unmarked) [1-003]
soybean
  d: soybean, effect on crop grade: 3 (Herbicidal ratio of 40% or higher and lower than 70%)
Veronica persica
  R: Veronica persica, herbicidal effect grade: 3 (Herbicidal ratio of 40% or higher and lower than 70%)
Beet [1]
  f (beet) effect on crop grade: 2 (Herbicidal ratio of 20% or higher and lower than 40%)
Beet [2]
  f: beet, effect on crop grade: 3 (Herbicidal ratio of 40% or higher and lower than 70%)
[3]
  herbicidal effect on H (Echinochloa crus-galli var. crus-galli), grade 0-5: 5 (Herbicidal ratio of 90% or more (almost completely withered))
Abutilon theophrasti [4]
  M: Abutilon theophrasti, herbicidal effect grade: 4 (Herbicidal ratio of 70% or higher and lower than 90%)
Amaranthus retroflexus
  N: Amaranthus retroflexus, herbicidal effect grade: 3 (Herbicidal ratio of 40% or higher and lower than 70%)
Abutilon theophrasti [5]
  M (Abutilon theophrasti) herbicidal effect grade: 4 (Herbicidal ratio of 70% or higher and lower than 90%)
Digitaria ciliaris [6]
  F: Digitaria ciliaris, herbicidal effect grade: 5 (Herbicidal ratio of 90% or more (almost completely withered))
Digitaria ciliaris [7]
  F (Digitaria ciliaris) herbicidal effect grade: 5 (Herbicidal ratio of 90% or more (almost completely withered))
Rice plant
  b: directly sowed rice plant, effect on crop grade: 5 (Herbicidal ratio of 90% or more (almost completely withered))
Alopecurus myosuroides
  J (Alopecurus myosuroides) herbicidal effect grade: 5 (Herbicidal ratio of 90% or more (almost completely withered))
Avena fatua
  I (Avena fatua) herbicidal effect grade: 4 (Herbicidal ratio of 70% or higher and lower than 90%)
Apera spica-venti
  L: Apera spica-venti, herbicidal effect grade: 5 (Herbicidal ratio of 90% or more (almost completely withered))
[8]
  Herbicidal effect grade, A: Echinochloa oryzacola Vasing.: 5 (Herbicidal ratio of 90% or more (almost completely withered))

## CON=C(C)CC1CC(OC(=O)C(C)(C)F)=C(c2c(C)cc(C)cc2C)C1=O (centres unmarked) [1-039]
soybean
  d: soybean, effect on crop grade: 4 (Herbicidal ratio of 70% or higher and lower than 90%)
Beet [1]
  f (beet) effect on crop grade: 3 (Herbicidal ratio of 40% or higher and lower than 70%)
Beet [2]
  f: beet, effect on crop grade: 3 (Herbicidal ratio of 40% or higher and lower than 70%)
[3]
  herbicidal effect on H (Echinochloa crus-galli var. crus-galli), grade 0-5: 5 (Herbicidal ratio of 90% or more (almost completely withered))
Abutilon theophrasti [4]
  M: Abutilon theophrasti, herbicidal effect grade: 4 (Herbicidal ratio of 70% or higher and lower than 90%)
Amaranthus retroflexus
  N: Amaranthus retroflexus, herbicidal effect grade: 4 (Herbicidal ratio of 70% or higher and lower than 90%)
Abutilon theophrasti [5]
  M (Abutilon theophrasti) herbicidal effect grade: 5 (Herbicidal ratio of 90% or more (almost completely withered))
Digitaria ciliaris [6]
  F: Digitaria ciliaris, herbicidal effect grade: 5 (Herbicidal ratio of 90% or more (almost completely withered))
Digitaria ciliaris [7]
  F (Digitaria ciliaris) herbicidal effect grade: 5 (Herbicidal ratio of 90% or more (almost completely withered))
Rice plant
  b: directly sowed rice plant, effect on crop grade: 5 (Herbicidal ratio of 90% or more (almost completely withered))
Alopecurus myosuroides
  J (Alopecurus myosuroides) herbicidal effect grade: 5 (Herbicidal ratio of 90% or more (almost completely withered))
Avena fatua
  I (Avena fatua) herbicidal effect grade: 1 (Herbicidal ratio of 5% or higher and lower than 20%)
Apera spica-venti
  L: Apera spica-venti, herbicidal effect grade: 5 (Herbicidal ratio of 90% or more (almost completely withered))
[8]
  Herbicidal effect grade, A: Echinochloa oryzacola Vasing.: 5 (Herbicidal ratio of 90% or more (almost completely withered))
